The source of these data is paper PMC8004798, “Identification of Bioactive Compounds from Marine Natural Products and Exploration of Structure-Activity Relationships (SAR)” (Antibiotics, 2021).

The test system of data set [1] is human leukaemia cells (THP-1). Kind of data set: Resazurin cytotoxicity assay, THP-1. An excerpt: (§1) To identify marine samples with activity against MRSA, 1434 compounds from the AIMS Bioresources Library (provided by the Queensland Compound Library, Brisbane, Australia, now called Compounds Australia) were screened in a resazurin cell viability assay.
Toxicity of AIMS Extract Library. Human alveolar epithelial cells (A549), Madin-Darby canine kidney epithelial cells (MDCK), human leukaemia cells (THP-1), human hepatocellular carcinoma cells (Hep-G2) and human embryonic kidney cells 293 (HEK293) were grown and differentiated in complete RPMI (Roswell Park Memorial Institute Medium) and DMEM (Dulbecco’s Modified Eagle’s medium) tissue culture media (RPMIc and DMEMc, from the Thermo Fisher Scientific, Waltham, MA, USA) by adding 10% FBS, 200 µM L-glutamine and 1 mM HEPES buffer solution. To determine toxicity of the AIMS extract library, 2 × 10^5 of each cell type were added to a 96-well plate and left for 48 h in a humidified 5% CO2 incubator at 37 °C to adhere. […] Then, resazurin (10 μL of 0.05% w/v) was added and after 4 h, fluorescence measured as described previously. The cell viability was calculated as percentage fluorescence relative to untreated cells.

The subject of data set [2] is Human alveolar epithelial cells (A549). Nature of the data set: Resazurin cytotoxicity assay, A549.
From the text: as §1
(§2) Toxicity of AIMS Extract Library. Human alveolar epithelial cells (A549), Madin-Darby canine kidney epithelial cells (MDCK), human leukaemia cells (THP-1), human hepatocellular carcinoma cells (Hep-G2) and human embryonic kidney cells 293 (HEK293) were grown and differentiated in complete RPMI (Roswell Park Memorial Institute Medium) and DMEM (Dulbecco’s Modified Eagle’s medium) tissue culture media (RPMIc and DMEMc, from the Thermo Fisher Scientific, Waltham, MA, USA) by adding 10% FBS, 200 µM L-glutamine and 1 mM HEPES buffer solution. To determine toxicity of the AIMS extract library, 2 × 10^5 of each cell type were added to a 96-well plate and left for 48 h in a humidified 5% CO2 incubator at 37 °C to adhere. Extract samples at a final concentration of 0.5 mg mL^−1 were added to the wells, then the plates incubated for 4 more days in a humidified 5% CO2 incubator at 37 °C. Then, resazurin (10 μL of 0.05% w/v) was added and after 4 h, fluorescence measured as described previously. The cell viability was calculated as percentage fluorescence relative to untreated cells.
Background: Resazurin is reduced to fluorescent resorufin, in cell work by metabolically active cells.

In another data set the test system is P. aeruginosa PAO1. Kind of data set: Resazurin bacterial inhibition assay (MIC), P. aeruginosa. The note with it: Pseudomonas aeruginosa, PAO1; commercial compounds; 18 h, resazurin; read-out: Minimum Inhibitory Concentration P. aeruginosa. Format: cell-based.
Another data set concerns E. coli EC958. Kind of data set: Resazurin bacterial inhibition assay (MIC), E. coli. Format: cell-based. The note with it: commercial compounds, 18 h, resazurin, read-out: Minimum Inhibitory Concentration E. coli.
The next data set has as its system M. tuberculosis H37Rv. Nature of the data set: Resazurin bacterial inhibition assay (MIC), M. tuberculosis. Particulars: Mycobacterium tuberculosis, 168 h, commercial compounds, 7 days, read-out: Minimum Inhibitory Concentration M. tuberculosis H37Rv. Format: cell-based.
Data set [3] concerns human embryonic kidney cells 293 (HEK293). Nature of the data set: Resazurin cytotoxicity assay, HEK 293.
From the text: as §1, §2

Data set [4] concerns human hepatocellular carcinoma cells (Hep-G2). Nature of the data set: Resazurin cytotoxicity assay, HepG2.
From the text: as §1, §2

Data set [5] concerns different test pathogens (MRSA, E. coli, P. aeruginosa, M. tuberculosis). Kind of data set: Bacterial inhibition assay (MIC), summary over test pathogens. The class given is cell-based. The note with it: read-out: MICs against MRSA, E. coli and P. aeruginosa. The procedure:
For screening of the AIMS library, each test sample (10 µL) was dispensed into a separate well of a 96 well microtiter plates (final sample concentration 0.5 mg mL^−1) using sterile dH2O. […] Bacterial suspension (90 µL, OD600nm 0.001) was added to each well and plates were incubated at 37 °C for either 18 h (MRSA, P. aeruginosa PAO1, E. coli EC958) or 7 days for M. tuberculosis H37Rv as described previously. Resazurin (10 μL; 0.05% w/v) was added and plates were incubated for 3 h or 24 h (M. tuberculosis) at 37 °C. The inhibitory activity was calculated by visual determination of colour change within wells or detection of fluorescence at 590 nm using a FLUOstar Omega microplate reader (BMG Labtech, Ortenberg, Germany). Percentage survival was calculated in comparison to the average of untreated control wells after normalising for background readings.

The test system of data set [6] is methicillin-resistant Staphylococcus aureus (MRSA). Nature of the data set: Resazurin bacterial inhibition assay (MIC), MRSA. The class given is cell-based. Particulars: Staphylococcus aureus, MRSA; commercial compounds; 18 h, resazurin; read-out: Minimum Inhibitory Concentration MRSA.
Where [7] appears, read: commercial compounds, unit from Table 8 head.

In brackets after ≈: the same amount, converted by molar mass. Where two headings read alike, the source gives them in different places. A value given as a limit tells only on which side of the number the result lay.

Turning to `CCCCCCN` [Hexylamine], the “Minimum Toxicity Concentration THP-1” value in data set [1] (setting [7]) was >100 µM. Besides, the “Minimum Toxicity Concentration A549” value in [2] (setting [7]) is recorded as >100 µM. The MIC in the data set on P. aeruginosa PAO1 was 50 µM (≈ 5.06 µg/mL); with E. coli EC958 (Escherichia coli, EC958) it was > 100 µM; with M. tuberculosis H37Rv, > 100 µM; in data set [5], 50 to 100 µM (≈ 5.06 to 10.1 µg/mL); in data set [6], > 100 µM. Besides, the “Minimum Toxicity Concentration HEK 293” value in [3] (setting [7]) was >100 µM. The “Minimum Toxicity Concentration HepG2” value in data set [4] (setting [7]) is >100 µM.

With `CCCCCCN(CCCCCC)CCCCCC` [Trihexylamine], the “Minimum Toxicity Concentration THP-1” value in data set [1] (setting [7]) is on record as >100 µM. In [2] (setting [7]), the “Minimum Toxicity Concentration A549” value is listed as >100 µM. Moreover, the MIC with P. aeruginosa PAO1 is 6.5 µM (≈ 1.75 µg/mL); in the data set on E. coli EC958 (Escherichia coli, EC958), 3 µM (≈ 0.809 µg/mL); in the data set on M. tuberculosis H37Rv, > 100 µM; in [5], 3 to 6.5 µM (≈ 0.809 to 1.75 µg/mL); in [6] it was 3 µM (≈ 0.809 µg/mL). Further, the “Minimum Toxicity Concentration HEK 293” value in [3] (setting [7]) is given as 50 µM. For the same compound, the “Minimum Toxicity Concentration HepG2” value in data set [4] (setting [7]) was >100 µM.

For the compound `Cc1cnc2c(ccc3c(C)c(C)cnc32)c1C` [3,4,7,8-Tetramethyl-1,10-phenanthroline], the “Minimum Toxicity Concentration THP-1” value in data set [1] (setting [7]) was 0.1 µM. Besides, the “Minimum Toxicity Concentration A549” value in [2] (setting [7]) came out at 0.1 µM. The MIC was 0.3 µM (≈ 0.0709 µg/mL) in the data set with P. aeruginosa PAO1; 0.3 µM (≈ 0.0709 µg/mL) in the data set on E. coli EC958 (Escherichia coli, EC958); 0.1 µM (≈ 0.0236 µg/mL) in the data set on M. tuberculosis H37Rv; 0.3 µM (≈ 0.0709 µg/mL) in data set [6]. Moreover, in [3] (setting [7]), the “Minimum Toxicity Concentration HEK 293” value turned out to be 0.1 µM. Besides, in data set [4] (setting [7]), the “Minimum Toxicity Concentration HepG2” value was determined as 0.1 µM.

With `c1ccc(CNCc2ccccc2)cc1` [Dibenzylamine], in data set [1] (human, 4 days), the “Minimum Toxicity Concentration THP-1” value is recorded as >100 µM. Besides, the “Minimum Toxicity Concentration A549” value in data set [2] (human, 4 days) is on record as >100 µM. The MIC in the data set with P. aeruginosa PAO1 is 12.5 µM (≈ 2.47 µg/mL); in the data set on E. coli EC958 (Escherichia coli, EC958), > 100 µM; with M. tuberculosis H37Rv, > 100 µM; in data set [6] it was > 100 µM. Besides, the “Minimum Toxicity Concentration HEK 293” value in data set [3] (human, 4 days) is given as >100 µM. The “Minimum Toxicity Concentration HepG2” value in data set [4] (human, 4 days) is >100 µM.

Consider `C1CCC(NC2CCCCC2)CC1` [Dicyclohexylamine], for which, in data set [1] (setting [7]), the “Minimum Toxicity Concentration THP-1” value was >100 µM. In addition, the “Minimum Toxicity Concentration A549” value in [2] (setting [7]) is recorded as >100 µM. Moreover, the MIC in the data set with P. aeruginosa PAO1 is 12.5 µM (≈ 2.27 µg/mL); in the data set with E. coli EC958 (Escherichia coli, EC958) it was > 100 µM; with M. tuberculosis H37Rv it was > 100 µM; in [6], > 100 µM. The “Minimum Toxicity Concentration HEK 293” value in data set [3] (setting [7]) is reported as >100 µM. Further, the “Minimum Toxicity Concentration HepG2” value in data set [4] (setting [7]) was >100 µM.

Take `c1ccc(-c2ccnc3c2ccc2c(-c4ccccc4)ccnc23)cc1` [Bathophenanthroline]: the “Minimum Toxicity Concentration THP-1” value in data set [1] (human, 4 days) was determined as 13 µM. The “Minimum Toxicity Concentration A549” value in data set [2] (human, 4 days) is 3 µM. Besides, the MIC was determined as 0.03 µM (≈ 0.00997 µg/mL) in the data set with P. aeruginosa PAO1; 0.019 µM (≈ 0.00632 µg/mL) with E. coli EC958 (Escherichia coli, EC958); 0.019 µM (≈ 0.00632 µg/mL) with E. coli EC958; 0.01 µM (≈ 0.00332 µg/mL) in the data set on M. tuberculosis H37Rv; 0.09 µM (≈ 0.0299 µg/mL) in data set [6]. The “Minimum Toxicity Concentration HEK 293” value in [3] (human, 4 days) was determined as 25 µM. Also, the “Minimum Toxicity Concentration HepG2” value in data set [4] (human, 4 days) is reported as 1.5 µM.

For `c1cnc2c(c1)ccc1ncccc12` [1,7-phenanthroline], the “Minimum Toxicity Concentration THP-1” value in data set [1] (setting [7]) is >100 µM. In addition, the “Minimum Toxicity Concentration A549” value in data set [2] (setting [7]) was >100 µM. The MIC in the data set with P. aeruginosa PAO1 is 2.5 µM (≈ 0.451 µg/mL); in the data set on E. coli EC958 (Escherichia coli, EC958), 25 µM (≈ 4.51 µg/mL); in the data set on M. tuberculosis H37Rv it was > 100 µM; in [6], 25 µM (≈ 4.51 µg/mL). In addition, the “Minimum Toxicity Concentration HEK 293” value in data set [3] (setting [7]) is given as >100 µM. The “Minimum Toxicity Concentration HepG2” value in data set [4] (setting [7]) is on record as >100 µM.
